Data from patent publication US10738041B2, “Ferroportin inhibitors” (Vifor (International) AG, priority 2015, dated 2020).
Marks after values point to notes of the source that are not given here.

Tests used:
naïve WT C57BL/6 mice = test: Hypoferremia in naïve mice; format: in vivo, mouse; conditions: for inhibition in vivo at 10 mg/kg / inhibition in vivo at 30 mg/kg / inhibition in vivo at 100 mg/kg: Mus musculus, po, 3 h, naïve WT C57BL/6 mice, relative to vehicle, read-out: Serum Iron Reduction at 3 h (%); for inhibition in vivo at 10 mg/kg: Dose 10 mg/kg p.o.; for inhibition in vivo at 30 mg/kg: Dose 30 mg/kg p.o.; for inhibition in vivo at 100 mg/kg: Dose 100 mg/kg p.o.
Description: Female C57BL/6 mice (Janvier, France) at age of 9 weeks were fed a standard diet (Harlan Provimi Kliba 3436) and treated per os (p.o.) with compounds or the corresponding amount of vehicle at a volume of 10 ml/kg body weight. Fpn inhibitors were formulated in 0.5% methylcellulose/water or 20% cremophor EL/water and dosed p.o. in mice at 10, 30 or 100 mg/kg body weight. Three hours later, mice were pre terminally anesthetized in isoflurane chambers and blood was collected by retro-orbital bleeding. Mice were sacrificed by cervical dislocation and spleens, livers and duodena were harvested and used for biomarker analysis. All experiments have been conducted in compliance with the license approved by the responsible veterinarian authorities. Serum was isolated by centrifugation of blood into gel-containing microtainers and serum iron was determined by the MULTIGENT Iron assay (Abbott Diagnostics, 6K95). Eight mice per group were used and one-way ANOVA with Bonferroni's multiple comparison test was performed to analyze the statistical differences between the experimental groups.

b2m−/− mice [1] = test: Correction of hyperferremia in beta2-microglobulin deficient mice; format: in vivo, mouse
From the text: Mutations in genes involved in sensing the systemic iron stores, such as hepcidin (Hamp1), hemochromatosis protein (HFE), hemojuvelin (HJV) and transferrin receptor 2 (TFR2) cause iron overload in mice and men. HFE, HJV and TFR2 molecules on hepatocytes are necessary for signaling of appropriate hepcidin production and their deficiency results in pathophysiologically low hepcidin levels and excessive iron absorption. HFE mutations is the most frequent cause of hereditary hemochromatosis (HH) in Caucasian adults. HFE is a MHC class I-like membrane molecule that associates with beta 2-microglobulin and participates in hepcidin transcriptional regulation through the bone morphogenetic protein receptor (BMPR) pathway. HFE−/− mice have decreased hepcidin levels, develop hyperferremia and high hepatic iron levels, which makes them a suitable animal model for studying iron overload in humans (Zhou, 1998). Mice deficient in beta 2-microglobulin (b2m−/−) develop hyperferremia and hemochromatosis similarly to HFE−/− animals, as beta 2-microglobulin is necessary for the cell-surface expression and function of HFE (Rothenberg and Voland, 1996). Due to the unavailability of HFE−/− mice, b2m−/− mice were used as a model of iron overload.
Female and male homozygous b2m−/− mice were supplied from Jackson Laboratories (B6.129P2-B2mtm1Unc/J, Stock Number: 002087) at age of 6 to 7 weeks and fed standard diet (Harlan Provimi Kliba 3436) ad libitum. Age and gender matched WT C57BL/6 mice were supplied by Charles River. To study the acute effects of ferroportin (Fpn) inhibitors in iron overload b2m−/− mice were treated with compounds or the corresponding amount of vehicle at a volume of 10 ml/kg body weight. […] WT controls received only vehicle. Three hours later, mice were pre-terminally anesthetized in isoflurane chambers and blood was collected by retro-orbital bleeding. Mice were sacrificed by cervical dislocation and spleens, livers and duodena were harvested and used for biomarker analysis. All experiments have been performed in compliance with license approved by the responsible veterinarian authorities. Serum was isolated by centrifugation of blood into gel-containing microtainers (BD Biosciences) and serum iron was determined by the MULTIGENT Iron assay (Abbott Diagnostics, Cat. 6K95). Four to nine mice per group were used and one-way ANOVA with Bonferroni's multiple comparison test was applied to analyze the statistical differences between the experimental groups.

b2m−/− mice [2] = test: Prevention of iron overload in beta2-microglobulin deficient mice; format: in vivo, mouse; conditions: 14 day treatment; for Total Liver Iron Reduction (%) / Total Spleen Iron Increase (%): ICP-OES; for 58Fe Liver Iron Reduction (%): ICP-MS
Description: The efficacy of the Fpn inhibitors to prevent liver iron accumulation in b2m−/− mice was investigated. Three weeks old b2−/− mice fed LID were dosed with either Fpn inhibitor or vehicle (methylcellulose; 10 ml/kg). Mice had access to drinking water supplemented with 1 mM^58Fe(II)-sulfate and 10 mM ascorbic acid. Dosing of Fpn inhibitor or vehicle followed by exposure to iron-containing water was repeated for 14 days. Mice were euthanized and the liver and spleen iron contents were analyzed by ICP-OES (all iron isotopes) and liver tissue was also analyzed for ^58Fe concentration (ICP-MS).

ferroportin = target: T1, ferroportin (Homo sapiens, UniProt Q9NP59); test: Inhibition of Iron Efflux by Ferroportin Inhibitors; format: cell-based; conditions: T47D cells, 58Fe in supernatant, 20 h; representative (FIG. 2)
T1 construct: host or cells: T47D cells
T1 sequence (Q9NP59 1-571): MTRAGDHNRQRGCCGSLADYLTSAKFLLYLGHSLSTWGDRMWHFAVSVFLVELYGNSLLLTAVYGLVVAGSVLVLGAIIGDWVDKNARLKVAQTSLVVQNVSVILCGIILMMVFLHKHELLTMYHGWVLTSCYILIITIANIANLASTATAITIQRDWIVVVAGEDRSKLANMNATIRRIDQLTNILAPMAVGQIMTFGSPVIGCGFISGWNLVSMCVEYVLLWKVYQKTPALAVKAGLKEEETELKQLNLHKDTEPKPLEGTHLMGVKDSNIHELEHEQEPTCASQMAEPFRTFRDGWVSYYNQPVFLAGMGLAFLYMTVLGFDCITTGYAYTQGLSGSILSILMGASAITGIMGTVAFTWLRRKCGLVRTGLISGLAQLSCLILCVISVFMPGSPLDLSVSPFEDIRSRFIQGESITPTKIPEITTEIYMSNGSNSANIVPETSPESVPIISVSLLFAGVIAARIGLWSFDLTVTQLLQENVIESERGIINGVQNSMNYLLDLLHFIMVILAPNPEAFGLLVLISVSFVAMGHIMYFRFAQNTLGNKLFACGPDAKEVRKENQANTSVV
Description: The activity of hepcidin and ferroportin inhibitor compounds regarding their ability to block iron export via ferroportin was tested on T47D cells (ECACC, Cat. 85102201) as described below.
Cells were plated in 24-well plates (Greiner, Cat. 662160) containing 350,000 cells/well and incubated overnight with 100 μM ^58Fe (^58Fe(II)-Sulfate, Vifor Pharma Batch No. ROR 3085) in 500 μM L-Ascorbic Acid (Sigma Aldrich, Cat. 795437) containing growth medium. […] A serial dilution of hepdicin (Bachem) or ferroportin inhibitors (4 μM-0.0064 μM, 5 fold dilution) was added in a total volume of 0.6 ml per well. Cells were incubated at 37° C. with 5% CO2 for 20 h. Supernatants were collected and ^58Fe was measured using inductively coupled plasma mass spectrometry (ICP-MS, Thermo Scientific, Element 2). Pellets were harvested for protein concentration measurements. Results are plotted as ng^58Fe in supernatant per mg protein in cell lysates.

[3] = injection of synthetic hepcidin in WT naïve mice (Rivera, 2005; FIG. 3A)

| Structure (SMILES) | inhibition in vivo at 10 mg/kg (naïve WT C57BL/6 mice) [%] | inhibition in vivo at 30 mg/kg (naïve WT C57BL/6 mice) [%] | inhibition in vivo at 100 mg/kg (naïve WT C57BL/6 mice) [%] | Total Liver Iron Reduction (%) (b2m−/− mice [2]; female, 60 mg/kg p.o. b.i.d.) | Total Spleen Iron Increase (%) (b2m−/− mice [2]; female, 60 mg/kg p.o. b.i.d.) | Total Liver Iron Reduction (%) (b2m−/− mice [2]; male, 60 mg/kg p.o. b.i.d.) | IC50 (ferroportin) [nM] | 58Fe Liver Iron Reduction (%) (b2m−/− mice [2]; female, 20 mg/kg p.o. b.i.d.) | Total Liver Iron Reduction (%) (b2m−/− mice [2]; female, 20 mg/kg p.o. b.i.d.) | Total Spleen Iron Increase (%) (b2m−/− mice [2]; female, 20 mg/kg p.o. b.i.d.) | 58Fe Liver Iron Reduction (%) (b2m−/− mice [2]; female, 60 mg/kg p.o. b.i.d.) | 58Fe Liver Iron Reduction (%) (b2m−/− mice [2]; male, 20 mg/kg p.o. b.i.d.) | Total Spleen Iron Increase (%) (b2m−/− mice [2]; male, 20 mg/kg p.o. b.i.d.) | 58Fe Liver Iron Reduction (%) (b2m−/− mice [2]; male, 60 mg/kg p.o. b.i.d.) | Total Spleen Iron Increase (%) (b2m−/− mice [2]; male, 60 mg/kg p.o. b.i.d.) | also measured |
| --- | --- | --- | --- | --- | --- | --- | --- | --- | --- | --- | --- | --- | --- | --- | --- | --- |
| O=C(NCc1ncccc1F)c1csc(CCNCCc2nc3ccccc3[nH]2)n1 [Example 94] | 30 | 50 | 80 | 57 | 65% | 79% | – | – | – | – | – | – | – | – | – | correction of elevated serum iron (b2m−/− mice [1]; b2m−/− mice, 50 mg/kg p.o. for 3 h (FIG. 5)): corrected the elevated serum iron to the levels observed in WT controls |
| O=C(NCc1ncccc1F)c1coc(CCNCCc2nc3ccccc3[nH]2)n1 [Example 127] | 17 | 47 | 54 | 2 | 51% | 65*** % | 80 | 34% | −38 | 71* % | 63*** % | 71*** % | −7 | 73*** % | −16 | Serum Iron Reduction (%) (b2m−/− mice [1]; female, Dose 20 mg/kg oral, blood collected 1 or 3 hours after administration (time not given)): 47*** %; Serum Iron Reduction (%) (b2m−/− mice [1]; female, Dose 60 mg/kg oral, blood collected 1 or 3 hours after administration (time not given)): 74*** %; Serum Iron Reduction (%) (b2m−/− mice [1]; male, Dose 20 mg/kg oral, blood collected 1 or 3 hours after administration (time not given)): 21%; Serum Iron Reduction (%) (b2m−/− mice [1]; male, Dose 60 mg/kg oral, blood collected 1 or 3 hours after administration (time not given)): 83** %; Total Liver Iron Reduction (%) (b2m−/− mice [2]; male, 20 mg/kg p.o. b.i.d.): 50** % |
| O=C(NCc1ncccc1F)c1coc(C2CN(CCc3nc4ccccc4[nH]3)C2)n1 [Example 208] | 50 | 65 | 73 | 8 | 150*** % | 84** % | – | 71* % | 15 | 56** % | 87** % | 58% | 21 | 94** % | 43 | Serum Iron Reduction (%) (b2m−/− mice [1]; female, Dose 20 mg/kg oral, blood collected 3 hours (##) after administration): 9%; Serum Iron Reduction (%) (b2m−/− mice [1]; female, Dose 60 mg/kg oral, blood collected 3 hours (##) after administration): 49*** %; Serum Iron Reduction (%) (b2m−/− mice [1]; male, Dose 20 mg/kg oral, blood collected 3 hours (##) after administration): 44%; Serum Iron Reduction (%) (b2m−/− mice [1]; male, Dose 60 mg/kg oral, blood collected 3 hours (##) after administration): 67** % |
| CC[C@H](C)[C@@H]1NC(=O)[C@@H](NC(=O)[C@@H](NC(=O)[C@@H]2CCCN2C(=O)[C@H](Cc2ccccc2)NC(=O)[C@H](Cc2c[nH]cn2)NC(=O)[C@@H](NC(=O)[C@@H](N)CC(=O)O)[C@@H](C)O)[C@@H](C)CC)CSSC[C@@H](C(=O)N[C@@H](CCCCN)C(=O)N[C@H](C(=O)O)[C@@H](C)O)NC(=O)[C@@H]2CSSC[C@@H]3NC(=O)[C@@H]4CSSC[C@H](NC(=O)[C@H](Cc5ccccc5)NC1=O)C(=O)N[C@@H](CSSC[C@H](NC(=O)[C@H](CCCCN)NC(=O)[C@H](CO)NC(=O)[C@H](CCCNC(=N)N)NC(=O)[C@H](Cc1c[nH]cn1)NC3=O)C(=O)NCC(=O)N[C@@H](CCSC)C(=O)N2)C(=O)NCC(=O)N4 [hepcidin, reference compound] | – | – | – | – | – | – | 86 | – | – | – | – | – | – | – | – | reduction of serum iron levels from the vehicle control (naïve WT C57BL/6 mice; [3]): 40-50%; time of maximal effect on serum iron post treatment (naïve WT C57BL/6 mice; [3]): 3 to 4 h |
